Experiments:
A549-ACE2 = experiment: drug-induced phospholipidosis relative to tamoxifen; higher = more phospholipidosis
[1] = test system: A549-ACE2 infected with SARS-CoV-2; experiment: cell count relative to DMSO; higher = less toxic; conditions: 24 h
HepG2 [2] = experiment: relative viability EC50 (midpoint between 100% and the lowest measured viability); higher = less toxic; conditions: 72 h
Vero E6 [3] = experiment: as above; conditions: 72 h
Caco-2 [4] = experiment: as above; conditions: 72 h
U2OS [5] = experiment: as above; conditions: 72 h
[6] = test system: A549-ACE2 infected with SARS-CoV-2; experiment: morphology score (similarity to uninfected cells); higher = more like uninfected cells; conditions: 24 h
HepG2 [7] = experiment: drug sensitivity score (DSS) for viability; higher = more toxic; extreme values may be limits of the assay; conditions: 72 h
Vero E6 [8] = experiment: as above; conditions: 72 h
Calu-3 [9] = experiment: as above; conditions: 72 h
Caco-2 [10] = experiment: as above; conditions: 72 h
U2OS [11] = experiment: as above; conditions: 72 h
HepG2 [12] = experiment: cell viability relative to DMSO; higher = less toxic; conditions: 72 h
Vero E6 [13] = experiment: as above; conditions: 72 h
Calu-3 [14] = experiment: as above; conditions: 72 h
Caco-2 [15] = experiment: as above; conditions: 72 h
U2OS [16] = experiment: as above; conditions: 72 h
[17] = test system: A549-ACE2 infected with SARS-CoV-2; experiment: SARS-CoV-2 infection rate relative to DMSO; higher = more infection; conditions: 24 h
Calu-3 [18] = experiment: relative viability EC50 (midpoint between 100% and the lowest measured viability); higher = less toxic; conditions: 72 h

COc1cc(/C=C2\CCC/C(=C\c3ccc(O)c(OC)c3)C2=O)ccc1O [cyclovalone]
drug-induced phospholipidosis [%], A549-ACE2
Conditions | 0.3 µM | 0.833333 µM | 3.33333 µM | 6.66667 µM | 10 µM | 30 µM
24 h | 3.68 | 3.84 | 17.9 | 21.4 | 23.9 | 23.4
48 h | 2.15 | 1.38 | 12.4 | – | – | –
72 h | 2.61 | -0.476 | 7.23 | – | – | –

Conditions | SARS-CoV-2 infection rate, [17] [%] | cell count, [1] [%] | cell viability, Caco-2 [15] [%] | cell viability, Calu-3 [14] [%] | cell viability, HepG2 [12] [%] | cell viability, U2OS [16] [%] | cell viability, Vero E6 [13] [%] | morphology score, [6]
1 nM | – | – | 93 | 93 | 88.9 | 96.1 | 103 | –
10 nM | – | – | 102 | 100 | 95.2 | 101 | 91.9 | –
100 nM | – | – | 100 | 105 | 99 | 97 | 99.1 | –
0.3 µM | 96 | 99 | – | – | – | – | – | 0.08
1000 nM | – | – | 96.1 | 98.9 | 92.8 | -0.3 | 84.1 | –
3 µM | 103 | 97 | – | – | – | – | – | 0.06
10 µM | 98 | 80 | – | – | – | – | – | 0.05
10000 nM | – | – | 101 | 59.3 | 90.4 | 22.4 | 108 | –
30 µM | 21 | 31 | – | – | – | – | – | 0.46

Conditions | drug sensitivity score | relative viability EC50 [µM]
Caco-2 [4] | – | > 10
Caco-2 [10] | 0 | –
Calu-3 [9] | 2.2 | –
HepG2 [2] | – | > 10
HepG2 [7] | 0 | –
U2OS [5] | – | 0.293
U2OS [11] | 18.4 | –
Vero E6 [3] | – | > 10
Vero E6 [8] | 0 | –

CN(C)CCCN1c2ccccc2Sc2ccccc21 [promazine]
Conditions | drug sensitivity score | relative viability EC50 [µM]
Caco-2 [4] | – | > 10
Caco-2 [10] | 0 | –
Calu-3 [9] | 0 | –
Calu-3 [18] | – | > 10
HepG2 [2] | – | > 10
HepG2 [7] | 0.1 | –
U2OS [5] | – | > 10
U2OS [11] | 0 | –
Vero E6 [3] | – | > 10
Vero E6 [8] | 0 | –

cell viability [%]
Conditions | Caco-2 [15] | Calu-3 [14] | HepG2 [12] | U2OS [16] | Vero E6 [13]
1 nM | 95.5 | 93.7 | 102 | 98.7 | 102
10 nM | 98.3 | 102 | 89.6 | 102 | 100
100 nM | 93.6 | 95.2 | 102 | 96.4 | 95.1
1000 nM | 96.1 | 95.6 | 93.5 | 96.3 | 97.2
10000 nM | 102 | 101 | 87.6 | 99.5 | 96

O=C1C[C@@]2(C(=O)N1)C(=O)N(Cc1ccc(Br)cc1F)C(=O)c1cccn12 [ranirestat]
Conditions | drug sensitivity score | relative viability EC50 [µM]
Caco-2 [4] | – | > 10
Caco-2 [10] | 0 | –
Calu-3 [9] | 0 | –
Calu-3 [18] | – | > 10
HepG2 [2] | – | > 10
HepG2 [7] | 0 | –
U2OS [5] | – | > 10
U2OS [11] | 0 | –
Vero E6 [3] | – | > 10
Vero E6 [8] | 0 | –

cell viability [%]
Conditions | Caco-2 [15] | Calu-3 [14] | HepG2 [12] | U2OS [16] | Vero E6 [13]
1 nM | 99.6 | 92.6 | 102 | 96.8 | 94
10 nM | 98.4 | 104 | 106 | 97.1 | 96.7
100 nM | 101 | 104 | 90.6 | 103 | 90.8
1000 nM | 98.6 | 102 | 99.2 | 96.8 | 92.2
10000 nM | 103 | 95.8 | 104 | 100 | 100

C=CCNc1c(O)cc2c(O)c1C[C@@H](C)C[C@H](OC)[C@H](O)[C@@H](C)/C=C(\C)[C@H](OC(N)=O)[C@@H](OC)/C=C\C=C(/C)C(=O)N2 [retaspimycin]
Conditions | drug sensitivity score | relative viability EC50 [µM]
Caco-2 [4] | – | 0.819
Caco-2 [10] | 8.8 | –
Calu-3 [9] | 11.5 | –
Calu-3 [18] | – | 0.199
HepG2 [2] | – | 0.0315
HepG2 [7] | 30 | –
U2OS [5] | – | 0.232
U2OS [11] | 19.2 | –
Vero E6 [3] | – | 0.815
Vero E6 [8] | 9.7 | –

cell viability [%]
Conditions | Caco-2 [15] | Calu-3 [14] | HepG2 [12] | U2OS [16] | Vero E6 [13]
1 nM | 92.1 | 94.2 | 97.3 | 96.5 | 99.3
10 nM | 101 | 89.1 | 95.6 | 99 | 100
100 nM | 94 | 84.5 | 6.2 | 88 | 104
1000 nM | 60 | 46.2 | 1.8 | 5.2 | 53.3
10000 nM | 27.8 | 41.2 | 2.9 | 2.1 | 25.5

C[C@H](O)[C@H](O)[C@H]1CNc2nc(N)[nH]c(=O)c2N1 [sapropterin]
Conditions | drug sensitivity score | relative viability EC50 [µM]
Caco-2 [4] | – | > 10
Caco-2 [10] | 0 | –
Calu-3 [9] | 0 | –
Calu-3 [18] | – | > 10
HepG2 [2] | – | > 10
HepG2 [7] | 0.1 | –
U2OS [5] | – | > 10
U2OS [11] | 0 | –
Vero E6 [3] | – | > 10
Vero E6 [8] | 0 | –

cell viability [%]
Conditions | Caco-2 [15] | Calu-3 [14] | HepG2 [12] | U2OS [16] | Vero E6 [13]
1 nM | 109 | 94.9 | 98.6 | 99.9 | 97.1
10 nM | 114 | 97 | 87.3 | 95.4 | 102
100 nM | 90.3 | 98.6 | 94.2 | 101 | 99.6
1000 nM | 107 | 106 | 102 | 91.3 | 96.9
10000 nM | 106 | 99.4 | 86.1 | 99.9 | 92.6

COc1cc2c(c(OC)c1OC)-c1c(cc3c(c1OC)OCO3)C[C@H](C)[C@@](C)(O)C2 [schisandrol-B]
Conditions | drug sensitivity score | relative viability EC50 [µM]
Caco-2 [4] | – | > 10
Caco-2 [10] | 0 | –
Calu-3 [9] | 0 | –
Calu-3 [18] | – | > 10
HepG2 [2] | – | > 10
HepG2 [7] | 0 | –
U2OS [5] | – | > 10
U2OS [11] | 0 | –
Vero E6 [3] | – | > 10
Vero E6 [8] | 0 | –

cell viability [%]
Conditions | Caco-2 [15] | Calu-3 [14] | HepG2 [12] | U2OS [16] | Vero E6 [13]
1 nM | 104 | 100 | 100 | 101 | 102
10 nM | 92 | 92.8 | 114 | 99.9 | 102
100 nM | 95.9 | 101 | 93.3 | 105 | 102
1000 nM | 95.9 | 105 | 98.4 | 103 | 100
10000 nM | 97.4 | 96.5 | 100 | 97.9 | 97.8
